Results as given in patent publication US20240409585A1, “MACROCYCLIC IMMUNOMODULATORS” (priority 2021, published 2024).
Numbered stars: 1 amine (or outer) side, 2 acyl side, 3 side chain; on linkers, the order of the positions; unused ones are H or OH. Bridge positions count the residues as written; N and C are the ends. Square brackets hold non-standard residues; d marks the D form. Peptide text beside a SMILES is read from it. * marks the point of attachment. ξ: configuration not given here. Phe(4-COOH) = N[C@@H](Cc1ccc(C(=O)O)cc1)C(=O)O; Bip = N[C@@H](Cc1ccc(-c2ccccc2)cc1)C(=O)O; Lys(Me3) = C[N+](C)(C)CCCC[C@H](N)C(=O)O; X50 = C[C@@H](C(=O)[*:2])N(CCCCCN)[*:1]; Phe(3-Me) = Cc1cccc(C[C@H](N)C(=O)O)c1; Val(3-OH) = CC(C)(O)[C@H](N)C(=O)O; 4Pal = N[C@@H](Cc1ccncc1)C(=O)O; Cha = N[C@@H](CC1CCCCC1)C(=O)O; Ile(3ξ) = CCC(C)[C@H](N)C(=O)O; Thr(3ξ) = CC(O)[C@H](N)C(=O)O; Carboxymethyl = O=C(O)C*; NMeA = CN[C@@H](C)C(=O)O; Orn = NCCC[C@H](N)C(=O)O; Pra = C#CC[C@H](N)C(=O)O; dDap = NC[C@@H](N)C(=O)O; Dab = NCC[C@H](N)C(=O)O; Dap = NC[C@H](N)C(=O)O; ξC = NC(CS)C(=O)O

Molecular target: T1, PE-labeled human PD-L1-Ig binding to Jurkat cell line over-expressing human PD-1 (Jurkat-PD-1) (Homo sapiens, UniProt Q15116)
T1 construct: expressed in transfected cells; host or cells: Jurkat
Assay: Jurkat-PD-1 Cell Binding High-Content Screening Assay (CBA): Method 1
Conditions: Jurkat-hPD-1 cells, PE-labeled PD-L1-Ig 20 nM final; read-out: Jurkat HPDL1 PD1 IC50 (uM) (Method 1)

T1 sequence (Q15116 25-288): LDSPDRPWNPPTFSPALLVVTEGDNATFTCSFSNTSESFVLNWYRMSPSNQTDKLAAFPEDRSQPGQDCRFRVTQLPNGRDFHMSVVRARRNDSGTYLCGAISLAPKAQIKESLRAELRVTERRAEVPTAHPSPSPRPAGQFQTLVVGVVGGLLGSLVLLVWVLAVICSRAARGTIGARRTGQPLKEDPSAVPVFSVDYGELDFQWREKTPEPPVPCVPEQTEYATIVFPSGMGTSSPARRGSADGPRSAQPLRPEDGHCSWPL

Structure (SMILES)	IC50 [µM]
CC(C)C[C@@H]1NC(=O)[C@H](Cc2c[nH]c3ccccc23)NC(=O)[C@H](CC(=O)O)NC(=O)[C@H](Cc2ccncc2)NC(=O)[C@H](CN)NC(=O)CSC[C@@H](C(=O)N[C@@H](C)C(N)=O)NC(=O)[C@H](CO)NC(=O)[C@H](C(C)C)NC(=O)[C@H](CC(C)C)NC(=O)[C@H](CC(N)=O)NC(=O)[C@@H](C)NC(=O)[C@H](C)N(C)C(=O)[C@H](C(C)C)NC(=O)[C@H](Cc2ccc(-c3ccccc3)cc2)NC1=O [Compound 1561] ({CH2CO}-[Dap][4Pal]DWL[Bip]V[NMeA][dA]NLVSCA-NH2; thioether N-14)	0.03
Cc1cccc(C[C@@H]2NC(=O)[C@H](CC(=O)O)NC(=O)[C@H](Cc3ccc(OCC(=O)O)cc3)NC(=O)[C@H](Cc3ccncc3)NC(=O)CSC[C@@H](C(=O)N[C@@H](CCN)C(N)=O)NC(=O)[C@H](CC(N)=O)NC(=O)[C@H](C(C)(C)O)NC(=O)[C@H](CC3CCCCC3)NC(=O)[C@H](CCN)NC(=O)[C@@H](CC(C)C)NC(=O)[C@H](C)N(C)C(=O)[C@H](Cc3ccc(OCC(=O)O)cc3)NC(=O)[C@H](Cc3ccc(-c4ccccc4)cc3)NC(=O)[C@H](Cc3ccc(OCC(=O)O)cc3)NC2=O)c1 [Compound 2191] ({CH2CO}-[4Pal]Y(Carboxymethyl)D[Phe(3-Me)]Y(Carboxymethyl)[Bip]Y(Carboxymethyl)[NMeA][dL][Dab][Cha][Val(3-OH)]NC[Dab]-NH2; thioether N-14)	0.03
CCC(C)[C@@H]1NC(=O)[C@H](Cc2ccc(-c3ccccc3)cc2)NC(=O)[C@H](C(C)C)NC(=O)[C@H](Cc2c[nH]c3ccccc23)NC(=O)[C@H](CC(=O)O)NC(=O)[C@H](Cc2ccc(O)cc2)NC(=O)[C@H](CC(N)=O)NC(=O)CSCC(C(=O)NCC(=O)N[C@@H](CCN)C(=O)O)NC(=O)[C@H](C(C)O)NC(=O)[C@H](C(C)C)NC(=O)[C@H](CC2CCCCC2)NC(=O)[C@H](CC(N)=O)NC(=O)[C@@H](CC(C)C)NC(=O)[C@H](C)N(C)C1=O (stereo partly drawn) [Compound 2003] ({CH2CO}-NYDWV[Bip][Ile(3ξ)][NMeA][dL]N[Cha]V[Thr(3ξ)][ξC]G[Dab]-OH; thioether N-14)	0.02
CC(C)C[C@@H]1NC(=O)[C@H](CCCN)NC(=O)[C@@H](CC(C)C)NC(=O)[C@H](C)N(C)C(=O)[C@H](CCCNC(=N)N)NC(=O)[C@H](Cc2ccc(-c3ccccc3)cc2)NC(=O)[C@H](C(C)C)NC(=O)[C@H](Cc2c[nH]c3ccccc23)NC(=O)[C@H](CC(=O)O)NC(=O)[C@H](Cc2ccc(OCC(=O)O)cc2)NC(=O)[C@H](CC(N)=O)NC(=O)CSC[C@@H](C(=O)N[C@@H](C)C(N)=O)NC(=O)[C@H]([C@@H](C)O)NC(=O)[C@H](C(C)C)NC1=O [Compound 1152] ({CH2CO}-NY(Carboxymethyl)DWV[Bip]R[NMeA][dL][Orn]LVTCA-NH2; thioether N-14)	0.08
CCC(C)[C@@H]1NC(=O)[C@H](Cc2ccc(-c3ccccc3)cc2)NC(=O)[C@H](C(C)C)NC(=O)[C@H](Cc2c[nH]c3ccccc23)NC(=O)[C@H](CC(=O)O)NC(=O)[C@H](Cc2ccc(O)cc2)NC(=O)[C@H](CCCC[N+](C)(C)C)NC(=O)CSCC(C(=O)NCC(=O)O)NC(=O)[C@H](C(C)O)NC(=O)[C@H](C(C)C)NC(=O)[C@H](CC2CCCCC2)NC(=O)[C@H](CCN)NC(=O)[C@@H](CC(C)C)NC(=O)[C@H](C)N(C)C1=O (stereo partly drawn) [Compound 2217] ({CH2CO}-[Lys(Me3)]YDWV[Bip][Ile(3ξ)][NMeA][dL][Dab][Cha]V[Thr(3ξ)][ξC]G-OH; thioether N-14)	0.01
CC(C)C[C@@H]1NC(=O)[C@H](CCN)NC(=O)[C@@H](CC(C)C)NC(=O)[C@H](C)N(C)C(=O)[C@H](CCC(=O)O)NC(=O)[C@H](Cc2ccc(-c3ccccc3)cc2)NC(=O)[C@H](C(C)C)NC(=O)[C@H](Cc2c[nH]c3ccccc23)NC(=O)[C@H](CC(=O)O)NC(=O)[C@H](Cc2ccc(OCC(=O)O)cc2)NC(=O)[C@H](CC(N)=O)NC(=O)CSC[C@@H](C(=O)NCC(N)=O)NC(=O)[C@H](C(C)O)NC(=O)[C@H](C(C)C)NC1=O (stereo partly drawn) [Compound 2086] ({CH2CO}-NY(Carboxymethyl)DWV[Bip]E[NMeA][dL][Dab]LV[Thr(3ξ)]CG-NH2; thioether N-14)	0.2
CC(C)C[C@@H]1NC(=O)[C@H](Cc2c[nH]c3ccccc23)NC(=O)[C@H](CC(=O)O)NC(=O)[C@H](Cc2ccc(OCC(=O)O)cc2)NC(=O)[C@H](Cc2ccc(OCC(=O)O)cc2)NC(=O)CSC[C@@H](C(=O)N[C@@H](C)C(N)=O)NC(=O)[C@H](CO)NC(=O)[C@H](C(C)C)NC(=O)[C@H](CC(C)C)NC(=O)[C@H](CCN)NC(=O)[C@@H](CC(C)C)NC(=O)[C@H](C)N(C)C(=O)[C@H](C(C)C)NC(=O)[C@H](Cc2ccc(-c3ccccc3)cc2)NC1=O [Compound 2123] ({CH2CO}-Y(Carboxymethyl)Y(Carboxymethyl)DWL[Bip]V[NMeA][dL][Dab]LVSCA-NH2; thioether N-14)	0.02
CC(C)C[C@@H]1NC(=O)[C@H](Cc2c[nH]c3ccccc23)NC(=O)[C@H](CC(=O)O)NC(=O)[C@H](Cc2ccc(OCC(=O)O)cc2)NC(=O)[C@H](Cc2ccccc2)NC(=O)CSC[C@@H](C(=O)N[C@@H](CC(N)=O)C(N)=O)NC(=O)[C@H](Cc2cnc[nH]2)NC(=O)[C@H](C(C)C)NC(=O)[C@H](CC(C)C)NC(=O)[C@H](CCN)NC(=O)[C@@H](CC(C)C)NC(=O)[C@H](C)N(C)C(=O)[C@H](C(C)C)NC(=O)[C@H](Cc2ccc(-c3ccccc3)cc2)NC1=O [Compound 2098] ({CH2CO}-FY(Carboxymethyl)DWL[Bip]V[NMeA][dL][Dab]LVHCN-NH2; thioether N-14)	0.01
CC(C)C[C@@H]1NC(=O)[C@H](CCN)NC(=O)[C@@H](CC(C)C)NC(=O)[C@H](C)N(CCCCCN)C(=O)[C@H](CCCNC(=N)N)NC(=O)[C@H](Cc2ccc(-c3ccccc3)cc2)NC(=O)[C@H](C(C)C)NC(=O)[C@H](Cc2c[nH]c3ccccc23)NC(=O)[C@H](CC(=O)O)NC(=O)[C@H](Cc2ccc(O)cc2)NC(=O)[C@H](CC(N)=O)NC(=O)CSC[C@@H](C(=O)N[C@@H](C)C(N)=O)NC(=O)[C@H]([C@@H](C)O)NC(=O)[C@H](C(C)C)NC1=O [Compound 1257] ({CH2CO}-NYDWV[Bip]R[X50][dL][Dab]LVTCA-NH2; thioether N-14)	0.13
CC(C)C[C@@H]1NC(=O)[C@H](Cc2c[nH]c3ccccc23)NC(=O)[C@H](CC(=O)O)NC(=O)[C@H](Cc2ccc(O)cc2)NC(=O)[C@H](Cc2ccccc2)NC(=O)CSC[C@@H](C(=O)N[C@@H](C)C(N)=O)NC(=O)[C@H](CO)NC(=O)[C@H](C(C)C)NC(=O)[C@H](CC(C)C)NC(=O)[C@H](CC(N)=O)NC(=O)[C@@H](CN)NC(=O)[C@H](C)N(C)C(=O)[C@H](C(C)C)NC(=O)[C@H](Cc2ccc(-c3ccccc3)cc2)NC1=O [Compound 1787] ({CH2CO}-FYDWL[Bip]V[NMeA][dDap]NLVSCA-NH2; thioether N-14)	0.1
C#CC[C@H](NC(=O)CNC(=O)[C@@H]1CSCC(=O)N[C@@H](Cc2ccc(OCC(=O)O)cc2)C(=O)N[C@@H](Cc2ccc(C(=O)O)cc2)C(=O)N[C@@H](CC(=O)O)C(=O)N[C@@H](Cc2c[nH]c3ccccc23)C(=O)N[C@@H](CC(C)C)C(=O)N[C@@H](Cc2ccc(-c3ccccc3)cc2)C(=O)N[C@@H](C(C)C)C(=O)N(C)[C@@H](C)C(=O)N[C@H](CC(C)C)C(=O)N[C@@H](CCN)C(=O)N[C@@H](CC2CCCCC2)C(=O)N[C@@H](C(C)C)C(=O)N[C@@H](CO)C(=O)N1)C(N)=O [Compound 1932] ({CH2CO}-Y(Carboxymethyl)[Phe(4-COOH)]DWL[Bip]V[NMeA][dL][Dab][Cha]VSCG[Pra]-NH2; thioether N-14)	0.02
